Entries after “also recorded” stand apart in the source; their conditions may differ.
What was measured:
eIF4A [1] = biological target: T1, eIF4A (Homo sapiens, UniProt P60842); assay: RNA-stimulated malachite green ATPase assay; type: biochemical; parameters: 6xHis with TEV protease site (N, cleaved yes); made in house; host or cells: E. coli BL21-CodonPlus; settings: for potency in the eIF4A ATPase assay (in words): comparison within the series
Experimental: Human eIF4A protein was produced recombinantly and a greater than 100,000-compound screen for inhibitors was completed using a malachite green ATPase assay (FIG. 11A). […] A stable mixture of yeast RNAs was added in an effort to improve this system and create a more biologically relevant eIF4A assay. eIF4A ATPase activity was accelerated without a statistically significant increase in the background signal in the presence of this RNA (FIG. 11B), and the new conditions gave excellent statistical parameters in a 384-well plate format (FIG. 11C).
ATPase assay. Recombinant WT or mutant eIF4A was added to a clear bottom 384 well plate (Greiner) in ATPase buffer (20 mM Tris pH 7.4, 80 mM KCl, 2.5 mM MgCl2, 1 mM DTT, 1% glycerol). Compounds were added and the plate was incubated at 37° C. for 20 min. ATP/RNA solution was added to afford a 20 μL per well reaction volume with 750 nM eIF4A, 250 μM ATP, and 0.25 mg/mL Yeast RNA (Sigma) for the initial screen and dose responses, and varying concentrations of ATP and RNA for the kinetic assays. The plate was incubated for 4 h at 37° C. for the initial screen and dose responses, and at seven time points (1 hour-7 hours) for kinetic assays. 0.04% v/v (final concentration) Tween-20 was added to a Malachite Green solution, and the Malachite Green (40 μL per well) was added. The solution was incubated for 5 minutes at room temperature and Absorbance at 660 nm was read on a SpectraMax iD5 plate reader (Molecular Devices).
Target sequence in this assay (P60842 whole entry): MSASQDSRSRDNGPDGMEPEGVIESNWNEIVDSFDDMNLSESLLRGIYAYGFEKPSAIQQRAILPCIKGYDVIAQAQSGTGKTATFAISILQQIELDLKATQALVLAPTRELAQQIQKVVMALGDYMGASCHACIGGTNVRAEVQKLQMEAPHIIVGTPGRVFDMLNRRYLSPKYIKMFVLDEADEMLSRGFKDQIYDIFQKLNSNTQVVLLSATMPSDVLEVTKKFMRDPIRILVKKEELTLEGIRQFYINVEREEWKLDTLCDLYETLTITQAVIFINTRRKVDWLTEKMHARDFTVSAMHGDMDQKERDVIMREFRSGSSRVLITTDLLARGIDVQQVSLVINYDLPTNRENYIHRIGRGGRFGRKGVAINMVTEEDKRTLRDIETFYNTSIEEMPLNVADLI

[2] = test system: BJAB Burkitt lymphoma cells; assay: CellTiter-Glo Luminescent Cell Viability assay; type: cell-based; settings: 72 h; for effect on BJAB cell viability: top concentration 10 uM
Experimental: Compounds 1 and compound 28 were evaluated in a CellTiter-Glo (CTG) Luminescence cell viability assay in BJAB Burkitt lymphoma cells that are known to be sensitive to eIF4A inhibition. This assay quantitates the number of living, metabolically active cells by measuring their ATP levels.
Cell viability assay. BJAB lymphoma cells were plated in quadruplicate at 5,000 cells/well in serial dilutions of drug ranging two logs with the top concentration of compounds tested at 10 uM. Viability was measured after 72 h using Cell Titer Glo (Promega G7573) following the manufacturer's protocol. Luminescence was detected on the BioTek HT Synergy plate reader and values were normalized to vehicle-treated (DMSO) wells. Silvestrol was included as a positive control (not shown).

eIF4A [3] = biological target: T1, eIF4A; assay: MANT-ATP fluorescence polarization assay; type: binding; parameters: 6xHis with TEV protease site (N, cleaved yes); made in house; host or cells: E. coli BL21-CodonPlus; settings: compound 200 μM or ADP 1 mM; MANT-ATP 100 nM
Experimental: Additional biochemical testing was performed on compound 28 to investigate its mechanism of eIF4A inhibition. Initially, kinetics experiments were repeated with compound 28, and the results for compound 28 matched those of compound 1 (FIG. 5D, 4A). Upon addition of compound 28, Km and Vmax of eIF4A decreased with respect to ATP. With respect to RNA, eIF4A Km […] and Vmax remained constant. […] Fluorescence polarization (FP) assays were utilized to confirm this mechanism of inhibition by testing the ability of compound 28 to compete fluorescent substrates off eIF4A. First, an FP assay was performed with MANT-ATP, a fluorescent, non-hydrolysable ATP analog, as the substrate.
MANT-ATP fluorescence polarization assay. Recombinant eIF4A (15 μM) was added to a low-volume black 384 well plate (Greiner). Yeast RNA (0.25 mg/mL) was added along with compound (200 μM) or ADP (1 mM) and the plate was incubated for 20 min. MANT-ATP was added (100 nM) and the plate was incubated for 30 min before fluorescence polarization was read at 355 nm:448 nm (Ex:Em) on a SpectraMax iD5 plate reader (Molecular Devices).
Target sequence in this assay (P60842 whole entry): as above

[4] = test system: HCV IRES-dependent translation of Renilla luciferase; assay: in vitro translation of bicistronic luciferase reporter in rabbit reticulocyte lysate, Renilla luciferase; type: biochemical; settings: Cycloheximide 600 μM, Silvestrol 100 nM
Source text: (§1) A bicistronic luciferase reporter ([…]) (FIG. 7B, top) was programmed into rabbit reticulocyte lysates, cellular extracts capable of performing both cap-dependent and Hepatitis C virus (HCV) internal ribosomal entry site (IRES)-mediated translation. eIF4A is the enzymatic driver of cap-dependent translation and is not involved in translation through HCV IRES. Compounds that inhibit eIF4A should inhibit cap-dependent translation of firefly (FF) luciferase while leaving IRES-mediated translation of Renilla (Ren) luciferase relatively unaffected. The inhibitory activities of cycloheximide, silvestrol, and 28 were assessed in this in vitro translation assay (FIG. 7B, bottom). […] The ability of compound 28 to preferentially target cap-dependent translation in a similar manner as silvestrol provides promising evidence that 28 inhibits eIF4A and not other proteins in the general translational machinery.
(§2) The dual-luciferase reporter plasmid pSP/(CAG)33/FF/HCV/Ren-pA51 was linearized with BamHI and subsequently in vitro transcribed using the Promega mMessage mMachine SP6 transcription kit, according to manufacturer's specifications. RNA was precipitated with LiCI and resuspended in H2O for use in in vitro translation experiments. Rabbit reticulocyte lysate (RRL) (nuclease-treated, Promega) was used to assess inhibitory effects of 28 on translation of the dual-reporter. Briefly, a reaction consisting of 50% RRL, 30 ng/μL reporter RNA, 10 μM Amino Acid Mixture Minus Methionine, 10 μM Amino Acid Mixture Minus Leucine, […], 1 U/μL RNAseOut (Thermo), and drug (final DMSO concentration 1%) were incubated at 30° C. for 90 minutes. The reaction was quenched with 50 μL 1× Passive Lysis Buffer (Promega), 10 μL of the mix was transferred to a 96-well white plate (Cellstar), and the Dual-Reporter Luciferase Assay System (Promega) was used to generate luminescence according to the manufacturer's instructions. Luminescence was detected using a plate reader (BioTek HT Synergy).

[5] = test system: cap-dependent translation of firefly luciferase; assay: in vitro translation of bicistronic luciferase reporter in rabbit reticulocyte lysate, firefly luciferase; type: biochemical; settings: Cycloheximide 600 μM, Silvestrol 100 nM
Source text: as §1, §2

eIF4A [6] = biological target: T1, eIF4A; assay: Cellular Thermal Shift Assay (CETSA) in A549 cells; type: cell-based; parameters: endogenous in cells; host or cells: A549 cells; settings: 90 min, 55° C., silvestrol 100 nM
Experimental: In CETSA, thermal stability of a protein is assessed by heating cells and then separating insoluble, aggregated, or denatured proteins from soluble proteins through supernatant/pellet fractionation. Levels of the protein of interest (eIF4A) remaining in the soluble fraction are then measured by western blot. The principle of CETSA is similar to differential scanning fluorimetry (DSF), in that thermal stability and solubility of a protein increases upon binding a ligand.
Cellular Thermal Shift Assay (CETSA). A549 cells were seeded into wells in 6-well plates and on the following day were exposed to 28 or silvestrol (100 nM) for 90 min. Cells were harvested, resuspended in 50 μL DMEM, and dispensed into thin-walled PCR tubes. Cells were subjected to 3 min of heat at 55° C. in a thermocycler (miniPCR). After heating, cells were left to cool for 3 min and then snap-frozen on dry ice. Cells were subjected to 3 rapid freeze thaws with 15 seconds of vortexing after each thaw. After the first thaw, 1 μL of a dissolved Pierce protease inhibitor tablet (ThermoFisher—A32963) was added to the cell lysate. Cell lysates were centrifuged at 20,000×g for 20 min. […] All immunoblot images were taken using the Azure 600 imaging system (Azure Biosystems) and analyzed using ImageJ 1.51s (NIH). […]
Target sequence in this assay (P60842 2-406): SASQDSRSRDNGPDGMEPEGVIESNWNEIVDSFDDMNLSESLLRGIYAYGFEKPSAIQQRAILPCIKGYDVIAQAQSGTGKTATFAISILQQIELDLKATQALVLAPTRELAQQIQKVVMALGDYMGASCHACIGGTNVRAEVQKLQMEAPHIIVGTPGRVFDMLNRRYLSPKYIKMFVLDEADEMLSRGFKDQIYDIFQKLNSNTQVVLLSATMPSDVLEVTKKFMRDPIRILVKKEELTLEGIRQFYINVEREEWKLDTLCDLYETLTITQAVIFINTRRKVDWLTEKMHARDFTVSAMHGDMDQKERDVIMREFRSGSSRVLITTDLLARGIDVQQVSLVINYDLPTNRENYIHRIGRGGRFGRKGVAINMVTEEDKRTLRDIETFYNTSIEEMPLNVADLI

## Nc1ccc(-c2ccc(-c3cc(C(=O)O)c4cc([N+](=O)[O-])ccc4n3)o2)cc1 [Compound 46, 2-(5-(4-aminophenyl)furan-2-yl)-6-nitroquinoline-4-carboxylic acid]
eIF4A [1]
  potency in the eIF4A ATPase assay (in words): low potency; also recorded: lose potency in the ATPase assay
[2]
  effect on BJAB cell viability: do not inhibit BJAB cell viability

## CCCCc1ccc(-c2ccc(-c3cc(C(=O)O)c4cc(NC(C)=O)ccc4n3)o2)cc1 [Compound 25, 6-acetamido-2-(5-(4-butylphenyl)furan-2-yl)quinoline-4-carboxylic acid]
eIF4A [1]
  potency in the eIF4A ATPase assay (in words): lose potency in the ATPase assay; also recorded: major losses in potency
[2]
  effect on BJAB cell viability: do not decrease BJAB cellular viability

## Nc1cccc(-c2ccc(-c3cc(C(=O)O)c4cc([N+](=O)[O-])ccc4n3)o2)c1 [Compound 47, 2-(5-(3-aminophenyl)furan-2-yl)-6-nitroquinoline-4-carboxylic acid]
eIF4A [1]
  potency in the eIF4A ATPase assay (in words): low potency; also recorded: lose potency in the ATPase assay
[2]
  effect on BJAB cell viability: do not inhibit BJAB cell viability

## Nc1ncnc2c1ncn2[C@@H]1O[C@H](COP(=O)(O)OP(=O)(O)O)[C@@H](O)[C@H]1O [ADP, reference compound]
eIF4A [3]
  competition of MANT-ATP off eIF4A: able to compete MANT-ATP out of its binding pocket

## CCCCc1ccc(-c2ccc(-c3cc(C(=O)O)c4ccc(Cl)cc4n3)o2)cc1 [Compound 9, 2-(5-(4-butylphenyl)furan-2-yl)-7-chloroquinoline-4-carboxylic acid]
eIF4A [1]; 750 nM eIF4A, 250 μM ATP, 0.25 mg/mL Yeast RNA, 4 h at 37° C.
  IC50: 21.7 ± 3.39 µM
eIF4A [1]
  potency in the eIF4A ATPase assay (in words): moderate potency; also recorded: performing the best in the ATPase assay of any inhibitor produced
[2]; Homo sapiens, CellTiter-Glo, n=4
  EC50: 4.29 ± 0.23 µM

## C[C@@H]1C[C@@H]([C@H](O)CC2CC(=O)NC(=O)C2)C(=O)[C@@H](C)C1 [Cycloheximide, reference compound]
[4]
  effect on HCV IRES-mediated translation (Renilla luciferase): inhibits both cap-dependent and IRES-mediated translation
[5]
  effect on cap-dependent translation (firefly luciferase): inhibits both cap-dependent and IRES-mediated translation

## COC(=O)[C@H]1[C@@H](O)[C@@]2(O)c3c(OC)cc(O[C@@H]4O[C@@H]([C@H](O)CO)CO[C@H]4OC)cc3O[C@@]2(c2ccc(OC)cc2)[C@@H]1c1ccccc1 [silvestrol, reference compound]
eIF4A [6]
  thermal stability of eIF4A in cells (CETSA): increased thermal stability of eIF4A
[4]
  effect on HCV IRES-mediated translation (Renilla luciferase): only show a modest effect on HCV IRES-dependent translation of Renilla luciferase
[5]
  effect on cap-dependent translation (firefly luciferase): inhibit cap-dependent translation of firefly luciferase

## CCCCc1ccc(-c2ccc(-c3cc(C(=O)O)c4cc(N)ccc4n3)o2)cc1 [Compound 24, 6-amino-2-(5-(4-butylphenyl)furan-2-yl)quinoline-4-carboxylic acid]
eIF4A [1]
  potency in the eIF4A ATPase assay (in words): lose potency in the ATPase assay; also recorded: major losses in potency
[2]
  effect on BJAB cell viability: do not decrease BJAB cellular viability

## CCCCc1ccc(-c2ccc(-c3cc(C(=O)OCC)c4cc([N+](=O)[O-])ccc4n3)o2)cc1 [Compound 29, ethyl 2-(5-(4-butylphenyl)furan-2-yl)-6-nitroquinoline-4-carboxylate]
eIF4A [1]
  potency in the eIF4A ATPase assay (in words): not potent in the ATPase assay; also recorded: lost all eIF4A potency
[2]
  effect on BJAB cell viability: did not inhibit cellular viability

Source: patent US20240360107A1, “AN EIF4A INHIBITOR WITH A NOVEL MECHANISM OF ACTION” (ARIZONA BOARD OF REGENTS ON BEHALF OF THE UNIVERSITY OF …, priority 2021, published 2024)
